In the supplement of paper PMC11061612:

Assays:
CHP-134 (Neuroblastoma) [1] = assay: Bliss excess, mean over the matrix (fraction); higher = more synergy
Method in brief: (§1)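 After 24 hours at 37°C and 5% CO2 in 1536-well plates, cells in DMEM/F12 or RPMI plus 10% FBS received two-drug dose matrices for 72 hours. Viability came from CellTiter-Glo 2.0 luminescence and was scaled as inhibition, anchored at 0 by vehicle wells and at 1 by blank wells. Combination Emax is taken as the second-highest inhibition in the matrix, and Bliss excess as the observed combination effect less EA + EB − EA·EB, with EA and EB the single-agent effects.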

[2] = tested on: NCI-H720 (Other Solid Carcinomas); assay: as above
Method in brief: as §1

BPH-1 (Non-Cancerous) = assay: combination Emax (second highest fraction inhibited in the dose matrix, 72 h); higher = more inhibition; extreme values may be limits of the assay
Method in brief: as §1

CHP-134 (Neuroblastoma) [3] = assay: as above
Method in brief: as §1

[4] = tested on: Detroit562 (Head and Neck Carcinoma); assay: as above
Method in brief: as §1

GAMG (Glioblastoma) = assay: as above
Method in brief: as §1

KS-1 (Glioblastoma) = assay: as above
Method in brief: as §1

[5] = tested on: LCLC-97TM1 (Non-Small Cell Lung Carcinoma); assay: as above
Method in brief: as §1

MPP-89 (Mesothelioma) = assay: as above
Method in brief: as §1

NCI-H2052 (Mesothelioma) = assay: as above
Method in brief: as §1

NCI-H2722 (Mesothelioma) = assay: as above
Method in brief: as §1

[6] = tested on: NCI-H720 (Other Solid Carcinomas); assay: as above
Method in brief: as §1

[7] = tested on: YAPC (Pancreatic Carcinoma); assay: as above
Method in brief: as §1

[8] = tested on: FTC-133 (Thyroid Gland Carcinoma); assay: as above
Method in brief: as §1
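For Bliss excess, mean over the matrix in this document: after 72 h of two-drug dosing.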

SMILES	Bliss excess (CHP-134 (Neuroblastoma) [1])	Bliss excess [2]	combination Emax (BPH-1 (Non-Cancerous))	combination Emax (CHP-134 (Neuroblastoma) [3])	combination Emax [4]	combination Emax (GAMG (Glioblastoma))	combination Emax (KS-1 (Glioblastoma))	combination Emax [5]	combination Emax (MPP-89 (Mesothelioma))	combination Emax (NCI-H2052 (Mesothelioma))	combination Emax (NCI-H2722 (Mesothelioma))	combination Emax [6]	combination Emax [7]	combination Emax [8]
C=CCn1c(=O)c2cnc(Nc3ccc(N4CCN(C)CC4)cc3)nc2n1-c1cccc(C(C)(C)O)n1 [AZD1775] + C1CN(CCC1(C(=O)N[C@@H](CCO)C2=CC=C(C=C2)Cl)N)C3=NC=NC4=C3C=CN4 [Capivasertib] (first compound max 3 µM, partner max 3 µM)	-0.0416	-0.0252	0.929	0.844	0.92	0.829	0.589	0.793	0.685	0.518	0.262	0.842	0.591	
CCN(CCO)CCCOc1ccc2c(Nc3cc(CC(=O)Nc4cccc(F)c4)[nH]n3)ncnc2c1 [AZD2811] + C[C@@H]1COCCN1C2=NC(=NC(=C2)C3(CC3)[S@](=N)(=O)C)C4=C5C=CNC5=NC=C4 [AZD6738] (first compound max 1 µM, 7x7, partner max 10 µM)		0.0033	0.4		0.913	0.399	0.576	0.842	0.646	0.359	0.326	0.8	0.288	0.688
CCN(CCO)CCCOc1ccc2c(Nc3cc(CC(=O)Nc4cccc(F)c4)[nH]n3)ncnc2c1 [AZD2811] + C=CCn1c(=O)c2cnc(Nc3ccc(N4CCN(C)CC4)cc3)nc2n1-c1cccc(C(C)(C)O)n1 [AZD1775] (first compound max 1 µM, partner max 1 µM)		0.0326	0.679		0.828	0.417	0.481	0.842	0.511	0.38	0.278	0.679	0.408	0.685
COc1cccc(OCCCN)c1-c1cc(Nc2cnc(C#N)cn2)n[nH]1 [Prexasertib] + Cc1cc2ncnn2cc1Nc1ncc2c(n1)n(C1CCOCC1)c(=O)n2C [AZD7648] (first compound max 1 µM, 7x7, partner max 10 µM)		0.0515	0.319		0.922	0.777	0.546	0.938	0.734	0.649	0.216	0.746	0.585	0.82
CCc1c2c(nc3ccc(O)cc13)-c1cc3c(c(=O)n1C2)COC(=O)[C@]3(O)CC [SN-38] + CN(C)CCCOc1ccc(-c2ccc3ncc4c(c3c2)n(C2CCOCC2)c(=O)n4C)cn1 [AZD0156] (first compound max 0.3 µM, 7x7, partner max 1 µM)		0.035	0.94		0.848	0.737	0.464	0.693	0.632	0.837	0.301	0.397	0.51	0.959
CN(C)CCCOc1ccc(-c2ccc3ncc4c(c3c2)n(C2CCOCC2)c(=O)n4C)cn1 [AZD0156] + O=C(c1cc(Cc2n[nH]c(=O)c3ccccc23)ccc1F)N1CCN(C(=O)C2CC2)CC1 [Olaparib] (first compound max 3 µM, partner max 3 µM)	0.174	0.0622	0.512	0.434	0.435	0.336	0.197	0.109	0.235	0.251	0.181	0.371	0.283	
